Holding throughout (format): physicochemical
What all share (conditions): magnesium oxide raw material

Data set [1] in a line: Bulk density, 100 mL stainless steel cup. As for the experimental part: The bulk density of magnesium oxide particles to be used in the present invention may be set to an upper limit of 0.8 g/mL or less, or 0.7 g/mL or less, since too high a density may cause a decrease in hardness. On the other hand, since too low bulk density may cause capping and lamination, the lower limit may be 0.1 g/mL or more, or 0.2 g/mL or more. Bulk density can be measured, e.g., using a 100 mL stainless steel cup (actual mass value (g)/100 (mL)).
(§1) The physical properties of the magnesium oxide used in these examples were measured, and the results were as follows. • Average particle size: 7.691 μm (measured according to laser diffraction scattering using a Microtrac Bell MT3300 EX2) • Bulk density: 0.249 g/mL (measured with 100 mL stainless steel cup (actual mass value (g)/100 (mL)) • Angle of repose: 41.7° (measured using MT-1 Multitester from Seishin Enterprise Co., Ltd.)
The weighed raw materials of magnesium oxide and internal additives were put into a polyethylene bag (1100 mm×600 mm) and mixed by shaking the bag 30 times from side to side. After the mixing, the bulk density was measured using a 100 mL stainless steel cup (actual mass value (g)/100 (mL)).
[formula] […]

The nature of data set [2]: Angle of repose, Multitester MT-1. As for the experimental part:
The angle of repose of magnesium oxide particles to be used in the present invention may be set to an upper limit of 50° or less, or 48° or less, since an excessively large angle of repose may lead to a variation in the mass of the resulting tablets during tableting due to deteriorated flowability. On the other hand, the lower limit of the angle of repose is not specified because the lower the angle of repose, the better. The angle of repose can be measured, e.g., using Multitester MT-1 from Seishin Enterprise Co., Ltd.
as §1
After mixing, the following items were evaluated. • Bulk density: Measured with 100 mL stainless steel cup (actual mass value (g)/100 (mL) • Angle of repose: Measured using MT-1 Multitester from Seishin Enterprise Co., Ltd.

The nature of data set [3]: Average particle size of magnesium oxide, laser diffraction scattering, MT3300 EX2. On the procedure: The average particle size and average particle diameter of the magnesium oxide particles of the present invention and magnesium hydroxide particles used as raw materials therefor can be measured according to laser diffraction scattering method with a commonly used instrument, such as a particle size analyzer (MT3300EX2 from Microtrac Bell Corporation).
as §1

`[O]=[Mg]` [Magnesium oxide]: the Bulk density in data set [1] turned out to be 0.249 g/mL. The compound further had an Angle of repose in data set [2] of 41.7 °. Besides, the Average particle size in data set [3] stood at 7.691 μm.

The values are drawn from US20250127725A1, “MAGNESIUM OXIDE TABLETS” (SETOLAS Holdings, Inc., priority 2021, published 2025).
